Measured values as given in US4698327A, “Novel glycopeptide derivatives” (priority 1986, dated 1987).
In brackets after ≈: the same amount, converted by molar mass.

Tests used:
[1] = tested on: Streptococcus pneumoniae Park 1; format: cell-based; conditions: agar dilution
[2] = tested on: Staphylococcus aureus V41; experiment: MIC, standard agar-dilution assay; format: cell-based
[3] = tested on: Staphylococcus epidermidis 222; experiment: MIC, standard agar-dilution assay; format: cell-based
[4] = tested on: Haemophilus influenzae 76; experiment: MIC, standard agar-dilution assay; format: cell-based
Escherichia coli TEM = experiment: MIC, standard agar-dilution assay; format: cell-based
Escherichia coli EC14 = experiment: MIC, standard agar-dilution assay; format: cell-based
[5] = tested on: Streptococcus pyogenes C203; experiment: MIC, standard agar-dilution assay; format: cell-based
Streptococcus pneumoniae = Streptococcus pneumoniae infection in mice; two doses, administered subcutaneously
Staphylococcus aureus = Staphylococcus aureus infection in mice; two doses, administered subcutaneously
[6] = tested on: Klebsiella pneumoniae X26; experiment: MIC, standard agar-dilution assay; format: cell-based
[7] = tested on: Haemophilus influenzae C.L.; experiment: MIC, standard agar-dilution assay; format: cell-based
[8] = tested on: Streptococcus faecium ATCC 9790; experiment: MIC, standard agar-dilution assay; format: cell-based
[9] = tested on: Staphylococcus epidermidis EPI1; format: cell-based; conditions: agar dilution
Escherichia coli N10 = experiment: MIC, standard agar-dilution assay; format: cell-based
[10] = tested on: Streptococcus sp. group D 2041; experiment: MIC, standard agar-dilution assay; format: cell-based
[11] = tested on: Klebsiella pneumoniae X68; experiment: MIC, standard agar-dilution assay; format: cell-based
[12] = tested on: Staphylococcus aureus S13E; format: cell-based; conditions: agar dilution
[13] = tested on: Klebsiella pneumoniae KAE; experiment: MIC, standard agar-dilution assay; format: cell-based
[14] = tested on: Staphylococcus aureus X400; experiment: MIC, standard agar-dilution assay; format: cell-based
Streptococcus pyogenes = Streptococcus pyogenes infection in mice; two doses, administered subcutaneously
[15] = tested on: Staphylococcus aureus NRRL B313; conditions: agar dilution

SMILES	MIC [1] [µg/mL]	MIC [2] [µg/mL]	MIC [3] [µg/mL]	MIC [4] [µg/mL]	MIC (Escherichia coli TEM) [µg/mL]	MIC (Escherichia coli EC14) [µg/mL]	MIC [5] [µg/mL]	ED50 (Streptococcus pneumoniae) [mg/kg/2]	ED50 (Staphylococcus aureus) [mg/kg/2]	MIC [6] [µg/mL]	MIC [7] [µg/mL]	MIC [8] [µg/mL]	MIC [9] [µg/mL]	MIC (Escherichia coli N10) [µg/mL]	MIC [10] [µg/mL]	MIC [11] [µg/mL]	MIC [12] [µg/mL]	MIC [13] [µg/mL]	MIC [14] [µg/mL]	ED50 (Streptococcus pyogenes) [mg/kg/2]	other results
CCCCCCCCCCNC1(C)CC(OC2C(Oc3c4cc5cc3Oc3ccc(cc3Cl)C(O)C3NC(=O)C(NC(=O)C5NC(=O)C(CC(N)=O)NC(=O)C(NC(=O)C(CC(C)C)NC)C(O)c5ccc(c(Cl)c5)O4)c4ccc(O)c(c4)-c4c(O)cc(O)cc4C(C(=O)O)NC3=O)OC(CO)C(O)C2O)OC(C)C1O (centres unmarked) [Compound 2, N^van -(n-decyl)vancomycin]	0.125 (≈ 0.0786 µM)	0.25 (≈ 0.157 µM)	0.25 (≈ 0.157 µM)	128 (≈ 80.5 µM)	> 128	> 128	0.06 (≈ 0.0377 µM)	0.51	1.8	> 128	128 (≈ 80.5 µM)	0.25 (≈ 0.157 µM)	0.25 (≈ 0.157 µM)	> 128	0.25 (≈ 0.157 µM)	> 128	0.25 (≈ 0.157 µM)	> 128	0.25 (≈ 0.157 µM)	1.6	–
CCCCCCCCCCN(C)C(CC(C)C)C(=O)NC1C(=O)NC(CC(N)=O)C(=O)NC2C(=O)NC3C(=O)NC(C(=O)NC(C(=O)O)c4cc(O)cc(O)c4-c4cc3ccc4O)C(O)c3ccc(c(Cl)c3)Oc3cc2cc(c3OC2OC(CO)C(O)C(O)C2OC2CC(C)(N)C(O)C(C)O2)Oc2ccc(cc2Cl)C1O (centres unmarked) [Compound 3, N^leu --(n-decyl)vancomycin]	0.5 (≈ 0.315 µM)	0.5 (≈ 0.315 µM)	1 (≈ 0.629 µM)	> 128	> 128	> 128	0.5 (≈ 0.315 µM)	3.6	> 5	> 128	128 (≈ 80.5 µM)	0.5 (≈ 0.315 µM)	2 (≈ 1.26 µM)	> 128	1 (≈ 0.629 µM)	> 128	0.5 (≈ 0.315 µM)	> 128	0.5 (≈ 0.315 µM)	4.6	MIC [15]: 0.5 µg/mL (≈ 0.315 µM)
CCCCCCCCCNC1(C)CC(OC2C(Oc3c4cc5cc3Oc3ccc(cc3Cl)C(O)C3NC(=O)C(NC(=O)C5NC(=O)C(CC(N)=O)NC(=O)C(NC(=O)C(CC(C)C)NC)C(O)c5ccc(c(Cl)c5)O4)c4ccc(O)c(c4)-c4c(O)cc(O)cc4C(C(=O)O)NC3=O)OC(CO)C(O)C2O)OC(C)C1O (centres unmarked) [Compound 5, N^van --(n-nonyl)vancomycin]	0.25 (≈ 0.159 µM)	0.25 (≈ 0.159 µM)	0.25 (≈ 0.159 µM)	64 (≈ 40.6 µM)	> 128	> 128	0.125 (≈ 0.0793 µM)	0.81	2.9	> 128	64 (≈ 40.6 µM)	0.25 (≈ 0.159 µM)	0.5 (≈ 0.317 µM)	> 128	0.5 (≈ 0.317 µM)	> 128	0.25 (≈ 0.159 µM)	> 128	0.25 (≈ 0.159 µM)	0.56	MIC [15]: 0.25 µg/mL (≈ 0.159 µM)
CCCCCCCCN(C)C(CC(C)C)C(=O)NC1C(=O)NC(CC(N)=O)C(=O)NC2C(=O)NC3C(=O)NC(C(=O)NC(C(=O)O)c4cc(O)cc(O)c4-c4cc3ccc4O)C(O)c3ccc(c(Cl)c3)Oc3cc2cc(c3OC2OC(CO)C(O)C(O)C2OC2CC(C)(N)C(O)C(C)O2)Oc2ccc(cc2Cl)C1O (centres unmarked) [Compound 8, N^leu --(n-octyl)vancomycin]	1 (≈ 0.64 µM)	0.5 (≈ 0.32 µM)	1 (≈ 0.64 µM)	128 (≈ 82 µM)	> 128	> 128	0.5 (≈ 0.32 µM)	3.1	> 5	> 128	128 (≈ 82 µM)	1 (≈ 0.64 µM)	2 (≈ 1.28 µM)	> 128	2 (≈ 1.28 µM)	> 128	1 (≈ 0.64 µM)	> 128	1 (≈ 0.64 µM)	3.7	MIC [15]: 0.5 µg/mL (≈ 0.32 µM)
CCN(CC)c1ccc(CNC2(C)CC(OC3C(Oc4c5cc6cc4Oc4ccc(cc4Cl)C(O)C4NC(=O)C(NC(=O)C6NC(=O)C(CC(N)=O)NC(=O)C(NC(=O)C(CC(C)C)NC)C(O)c6ccc(c(Cl)c6)O5)c5ccc(O)c(c5)-c5c(O)cc(O)cc5C(C(=O)O)NC4=O)OC(CO)C(O)C3O)OC(C)C2O)cc1 (centres unmarked) [Example 77, N^van ( -p-diethylaminobenzyl)vancomycin]	0.125 (≈ 0.0776 µM)	0.5 (≈ 0.31 µM)	0.5 (≈ 0.31 µM)	128 (≈ 79.5 µM)	> 128	> 128	0.25 (≈ 0.155 µM)	1.2	1.1	> 128	128 (≈ 79.5 µM)	0.5 (≈ 0.31 µM)	1 (≈ 0.621 µM)	> 128	1 (≈ 0.621 µM)	> 128	0.5 (≈ 0.31 µM)	> 128	0.5 (≈ 0.31 µM)	0.8	MIC [15]: 0.25 µg/mL (≈ 0.155 µM)
CNC(CC(C)C)C(=O)NC1C(=O)NC(CC(N)=O)C(=O)NC2C(=O)NC3C(=O)NC(C(=O)NC(C(=O)O)c4cc(O)cc(O)c4-c4cc3ccc4O)C(O)c3ccc(c(Cl)c3)Oc3cc2cc(c3OC2OC(CO)C(O)C(O)C2OC2CC(C)(NCc3ccc(Br)cc3)C(O)C(C)O2)Oc2ccc(cc2Cl)C1O (centres unmarked) [Example 80, N^van --( -p-bromobenzyl)vancomycin]	0.03 (≈ 0.0185 µM)	0.5 (≈ 0.309 µM)	0.5 (≈ 0.309 µM)	64 (≈ 39.5 µM)	> 128	> 128	0.25 (≈ 0.154 µM)	0.41	1.34	> 128	64 (≈ 39.5 µM)	0.25 (≈ 0.154 µM)	1 (≈ 0.618 µM)	> 128	1 (≈ 0.618 µM)	> 128	0.25 (≈ 0.154 µM)	> 128	0.25 (≈ 0.154 µM)	0.78	MIC [15]: 0.25 µg/mL (≈ 0.154 µM)
CCCCc1ccc(CNC2(C)CC(OC3C(Oc4c5cc6cc4Oc4ccc(cc4Cl)C(O)C4NC(=O)C(NC(=O)C6NC(=O)C(CC(N)=O)NC(=O)C(NC(=O)C(CC(C)C)NC)C(O)c6ccc(c(Cl)c6)O5)c5ccc(O)c(c5)-c5c(O)cc(O)cc5C(C(=O)O)NC4=O)OC(CO)C(O)C3O)OC(C)C2O)cc1 (centres unmarked) [Example 81, N^van --( -p-butylbenzyl)vancomycin]	0.06 (≈ 0.0376 µM)	0.125 (≈ 0.0783 µM)	0.125 (≈ 0.0783 µM)	32 (≈ 20.1 µM)	> 128	> 128	0.06 (≈ 0.0376 µM)	1.26	0.74	> 128	32 (≈ 20.1 µM)	0.06 (≈ 0.0376 µM)	0.25 (≈ 0.157 µM)	> 128	0.25 (≈ 0.157 µM)	> 128	0.06 (≈ 0.0376 µM)	> 128	0.125 (≈ 0.0783 µM)	1.16	MIC [15]: 0.06 µg/mL (≈ 0.0376 µM)
CCCCOc1ccc(CNC2(C)CC(OC3C(Oc4c5cc6cc4Oc4ccc(cc4Cl)C(O)C4NC(=O)C(NC(=O)C6NC(=O)C(CC(N)=O)NC(=O)C(NC(=O)C(CC(C)C)NC)C(O)c6ccc(c(Cl)c6)O5)c5ccc(O)c(c5)-c5c(O)cc(O)cc5C(C(=O)O)NC4=O)OC(CO)C(O)C3O)OC(C)C2O)cc1 (centres unmarked) [Example 84, N^van --( -p-butoxybenzyl)vancomycin]	0.03 (≈ 0.0186 µM)	0.125 (≈ 0.0776 µM)	0.25 (≈ 0.155 µM)	64 (≈ 39.7 µM)	> 128	> 128	0.06 (≈ 0.0372 µM)	1.14	0.65	> 128	32 (≈ 19.9 µM)	0.125 (≈ 0.0776 µM)	0.25 (≈ 0.155 µM)	> 128	0.25 (≈ 0.155 µM)	> 128	0.125 (≈ 0.0776 µM)	> 128	0.125 (≈ 0.0776 µM)	0.69	MIC [15]: 0.125 µg/mL (≈ 0.0776 µM)
